Measured values published in patent publication US12630565B2, “DNA-dependent protein kinase inhibitor” (DIZAL (JIANGSU) PHARMACEUTICAL CO., LTD., priority 2019, dated 2026).

Tests used:
[1] = biological target: Full length human DNAPK protein (Homo sapiens, UniProt P78527); test: DNA-PK enzymatic assay (TR-FRET); format: biochemical; settings: 10 μM ATP, 1.6 μM peptide substrate
Rat hepatocyte = test: Metabolic stability assay (rat hepatocyte Clint); format: in vitro ADME; settings: 1 μM compound, cryopreserved hepatocytes 1 million cells per mL
Method in brief: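 Compound at 1 μM incubated with cryopreserved rat hepatocytes, 1 million cells/mL, sampled 0–120 min with acetonitrile quench and LC-MS/MS quantitation. CLint (μL/min/E6) derived from elimination rate constant and half-life of parent disappearance, scaled by cell concentration.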

[2] = Metabolic stability assay (human microsomal Clint); format: in vitro ADME; settings: 1 mg/mL microsomes, 1 mM NADPH, 37° C.; for Human liver microsomal CLint: 1 μM compound; for microsomal CLint at 1 μM: human, pooled human liver microsomes, pH 7.4, 1 μM compound
Method in brief: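 Compound (1 μM) incubated at 37 °C with pooled human liver microsomes (1 mg/mL) and 1 mM NADPH in 100 mM phosphate, pH 7.4. Samples quenched in acetonitrile at 0–30 min and analysed by LC-MS/MS for parent loss. CLint reported in μl/min/mg.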

[3] = test system: MDCKII-MDR1-BCRP cell monolayers; test: MDCKII-MDR1-BCRP efflux assay; format: in vitro ADME; settings: 5 μM compound, 120 min, HBSS pH 7.4
Method in brief: (§1)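 Bidirectional (A-B, B-A) transport of 5 μM compound across MDCKII-MDR1-BCRP monolayers in HBSS, 25 mM HEPES pH 7.4, ~37° C. for 120 min, triplicate; donor and receiver concentrations measured, monolayer integrity checked with Lucifer yellow. Papp and efflux ratio calculated.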

[4] = Brain-blood-barrier penetration assay (short oral absorption model, Kp,uu); format: in vivo; settings: male Han Wistar rats, oral 10 mg/kg in 1% methylcellulose, AUC(brain)/AUC(plasma)×(fu,brain/fu.plasma); for Kp uu: male, Han Wistar, rat, brain and plasma, po, 10 mg/kg
Method: It is believed that Kp,uu, the relationship between concentrations of unbound drug in brain and in plasma, is the key to prediction of CNS action and should be the main parameter measured and optimized for in drug discovery (Di L et al., Journal of Medicinal Chemistry [2013], 56: 2-12).
In vitro plasma and brain binding assay was carried out by using equilibrium dialysis method with semi-permeable membrane. Plasma and diluted brain homogenate (1:4 with DPBS pH7.4) were spiked with 5 μM test compound (in triplicate) and dialyzed against equal volume of 150 μL 100 mM PBS buffer (pH7.4) at 37° C. for 18 hours in a slowly rotated plate. At the end of incubation, a 50 μL aliquot from the receiver side and a 5 μL from the donor chamber were taken. The 5 μL sample was further diluted with 45 μL of blank plasma or brain homogenate. Paired samples were matrix-matched with either buffer or blank plasma/brain homogenate and mixed for 2 min, and then precipitated with 150 μL cold acetonitrile with 100 ng/mL tolbutamide as internal standard. After centrifuging at 4000 rpm for 20 min, supernatant was diluted with 0.1% formic acid aqueous solution and analyzed for LC/MS/MS (API 4000, Applied Biosystems, Foster City). Unbound fraction (fu) of test compound in the brain homogenate and diluted plasma were calculated by the ratio of the buffer side response to the brain homogenate/plasma side response, and unbound fraction (fu,pl and fu,br) of test compound in non-diluted plasma and tissue were calculated from measured fu in homogenate and plasma with the following equation: fu,bl (fu,br)=(1/D)/[(1/fu−1)+1/D)]. D is dilution factor.
A Short oral absorption (SOA) model is an in-vivo screening model to identify brain penetration of a compound. Six male Han Wistar rats purchased from Beijing Vital River were orally dosed with the compound at 10 mg/kg in 1% methylcellulose At 0.5, 1, 2, 4, 7 and 16 hour post-dose, cerebral spinal fluid (CSF) was collected from cisterna magna. Plasma samples will be processed for plasma by centrifugation at approximately 4° C., 3,000 g within half an hour of collection. Plasma samples will be removed to a labeled tube and stored at −80 degree until analysis. Brain tissue was harvested and homogenized in 3× volume of 100 mM phosphate buffered saline (pH7.4). All samples were stored at ˜−70° C. prior to LC/MS/MS analysis.
Standards were prepared by spiking blank plasma, brain homogenate and artificial CSF covering 0.5 to 500 ng/mL. Homogenized brain tissue along with plasma samples were precipitated by adding 3-fold volume of cold acetonitrile containing internal standard (40 ng/mL Dexamethasone and 40 ng/mL Diclofenac), and 10 μL of CSF samples were precipitated with 100 μL of cold acetonitrile containing internal standard. After 2 min vortex and 5 min centrifugation at 14,000 rpm, supernatant was analyzed by LC/MS/MS (API 4000, Applied Biosystems, Foster City). Two sets of standard curves were run at the beginning and end of each batch from plasma sample analysis. For brain and CSF samples, one standard curve was analyzed along with test samples.
Total brain levels, expressed as brain/plasma ratio (Kp) were measured by AUCbrain/AUCplasma in rodents after oral administration. Free fraction of test compound in biological matrix was determined by in vitro plasma and brain binding assay. Kp,uu was calculated by the following equation: Kp,uu=AUC (brain)/AUC (plasma)×(fu,brain/fu.plasma).

MDR1, BCRP = test: MDCKII-MDR1-BCRP efflux assay; format: in vitro ADME; settings: dog, pH 7.4, 5 μM compound, HBSS pH 7.4, read-out: MDCK-Mdr1-BCRP efflux ratio
Method in brief: as §1

Row | SMILES | IC50 [1] [nM] | Rat hepatocyte CLint (μl/min/10^−6 cells) (Rat hepatocyte) | Human liver microsomal CLint [2] [µL/min/mg] | MDCK-Mdr1-BCRP efflux ratio [3] | Kp uu [4] | microsomal CLint at 1 μM [2] [µL/min/mg] | efflux ratio at 120 min, 5 μM (MDR1, BCRP) | Kp, uu (brain) [4]
1 | COC1CCC(n2nc(C)c3cnc(Nc4cn5ncnc5cc4C)nc32)C1 (single isomer, unassigned) [Example 110, 1-(3-methoxycyclopentyl)-3-methyl-N-(7-methyl-[1,2,4]triazolo[1,5-a]pyridin-6-yl)-1H-pyrazolo[3,4-d]pyrimidin-6-amine] | 1.8 | 17.4 | 64.8 | 1.7 | 0.25 | – | – | –
2 | Cc1cc2ncnn2cc1Nc1ncc2c(C)nn(C3CCCOCC3)c2n1 (single isomer, unassigned) [Example 34, 3-methyl-N-(7-methyl-[1,2,4]triazolo[1,5-a]pyridin-6-yl)-1-(oxepan-4-yl)-1H-pyrazolo[3,4-d]pyrimidin-6-amine] | 1.2 | 12.7 | 31.4 | 3.5 | 0.24 | – | – | –
3 | CO[C@H]1CC[C@H](n2nc(C)c3cnc(Nc4cn5ncnc5cc4C)nc32)CC1 [Example 24, 1-((1r,4r)-4-methoxycyclohexyl)-3-methyl-N-(7-methyl-[1,2,4]triazolo[1,5-a]pyridin-6-yl)-1H-pyrazolo[3,4-d]pyrimidin-6-amine] | 0.4 | 5.5 | – | – | 0.1 | 72.3 | 1.4 | –
4 | Cc1cc2ncnn2cc1Nc1ncc2c(C)nn([C@H]3C[C@H]4CC[C@@H](C3)O4)c2n1 [Example 106, 1-((1R,3r,5S)-8-oxabicyclo[3.2.1]octan-3-yl)-3-methyl-N-(7-methyl-[1,2,4]triazolo[1,5-a]pyridin-6-yl)-1H-pyrazolo[3,4-d]pyrimidin-6-amine] | 0.9 | 17.6 | – | – | 0.19 | 68.9 | 2.1 | –
5 | Cc1cc2ncnn2cc1Nc1ncc2c(C)nn([C@@H]3C[C@H]4CC[C@@H](C3)O4)c2n1 [Example 107, 1-((1R,3s,5S)-8-oxabicyclo[3.2.1]octan-3-yl)-3-methyl-N-(7-methyl-[1,2,4]triazolo[1,5-a]pyridin-6-yl)-1H-pyrazolo[3,4-d]pyrimidin-6-amine] | 1.3 | 4.5 | – | – | 0.3 | 13.9 | 2.7 | –
6 | Cc1cc2ncnn2cc1Nc1ncc2c(C)nn(C3CCC(F)(F)CC3)c2n1 [Example 21, 1-(4,4-difluorocyclohexyl)-3-methyl-N-(7-methyl-[1,2,4]triazolo[1,5-a]pyridin-6-yl)-1H-pyrazolo[3,4-d]pyrimidin-6-amine] | 1.4 | 10.0 | – | – | 0.08 | 102 | 1.3 | –
7 | Cc1cc2ncnn2cc1Nc1ncc2c(C)nn(C3CCOCC3C)c2n1 (single isomer, unassigned) [Example 114, 3-methyl-N-(7-methyl-[1,2,4]triazolo[1,5-a]pyridin-6-yl)-1-(3-methyltetrahydro-2H-pyran-4-yl)-1H-pyrazolo[3,4-d]pyrimidin-6-amine] | 1.7 | 8.5 | 50.4 | 2 | – | – | – | –
8 | COC1CCC(n2nc(C)c3cnc(Nc4cn5ncnc5cc4C)nc32)C1 (single isomer, unassigned) [Example 111, 1-(3-methoxycyclopentyl)-3-methyl-N-(7-methyl-[1,2,4]triazolo[1,5-a]pyridin-6-yl)-1H-pyrazolo[3,4-d]pyrimidin-6-amine] | 1.1 | 17.0 | 68.5 | 1.8 | – | – | – | 0.36
9 | Cc1cc2ncnn2cc1Nc1ncc2c(n1)c(C1CCOCC1)nn2C [Example 1, 1-methyl-N-(7-methyl-[1,2,4]triazolo[1,5-a]pyridin-6-yl)-3-(tetrahydro-2H-pyran-4-yl)-1H-pyrazolo[4,3-d]pyrimidin-5-amine] | 0.8 | 5.4 | – | – | 0.17 | 19.8 | 5.9 | –
10 | Cc1cc2ncnn2cc1Nc1ncc2c(C)nn(C3CCCOC3)c2n1 (single isomer, unassigned) [Example 30, 3-methyl-N-(7-methyl-[1,2,4]triazolo[1,5-a]pyridin-6-yl)-1-(tetrahydro-2H-pyran-3-yl)-1H-pyrazolo[3,4-d]pyrimidin-6-amine] | 15.7 | 4.5 | 17.7 | 1.2 | – | – | – | –
11 | Cc1cc2nccn2cc1Nc1ncc2c(n1)c(C1CCOCC1)nn2C [Example 2, 1-methyl-N-(7-methylimidazo[1,2-a]pyridin-6-yl)-3-(tetrahydro-2H-pyran-4-yl)-1H-pyrazolo[4,3-d]pyrimidin-5-amine] | 1.4 | 3.0 | – | – | 0.14 | 12.7 | 3.3 | –
12 | CO[C@H]1CC[C@H](c2nn(C)c3cnc(Nc4cn5ncnc5cc4C)nc32)CC1 [Example 7, 3-((1r,4r)-4-methoxycyclohexyl)-1-methyl-N-(7-methyl-[1,2,4]triazolo[1,5-a]pyridin-6-yl)-1H-pyrazolo[4,3-d]pyrimidin-5-amine] | 0.8 | 7.5 | – | – | 0.1 | 75.1 | 2.3 | –
